Paper PMC5571344, “Identification and Mode of Action of a Plant Natural Product Targeting Human Fungal Pathogens” (Antimicrobial Agents and Chemotherapy, 2017)
In brackets after ≈: the same amount, converted by molar mass. Like-named read-outs stand apart in the source and are kept apart here. Blank lines part the entries; values can stand above or below the compound they belong to.

Columns and labels:
Experiment in all cases: microbe, parasite or virus in culture
[1] = test system: Pichia kudriavzevii C. krusei; parameters: species or system Candida strains; broth microdilution antifungal susceptibility according to EUCAST protocols, growth inhibition MIC; conditions: DSY2293, EUCAST, read-out: MIC Fluconazole
Experimental: (§1) The results of [compound left out] susceptibility assays with several clinically relevant Candida species are shown on Fig. 2B. All strains, except C. glabrata, were highly susceptible to [compound left out]. […] [compound left out] […] The yeast and bacterial strains used in the study are listed in Table S1 in the supplemental material. NPs were dissolved in DMSO to 10 μg/ml. [compound left out] [compound left out] was purchased from Phytolab (GmbH), dissolved in DMSO at a 2 mM concentration, heated for 20 min at 50°C for solubilization, and stored at −20°C until usage.

C. tropicalis [2] = test system: C. tropicalis; parameters: species or system Candida strains; broth microdilution antifungal susceptibility according to EUCAST protocols, growth inhibition MIC; conditions: Candida tropicalis, EUCAST, read-out: MIC Fluconazole
Experimental: as §1

C. albicans [3] = test system: C. albicans; parameters: species or system Candida strains; broth microdilution antifungal susceptibility according to EUCAST protocols, growth inhibition MIC; conditions: Candida albicans, EUCAST, read-out: MIC Fluconazole
Experimental: as §1

[4] = test system: Pichia kudriavzevii C. krusei; parameters: species or system Candida strains; broth microdilution antifungal susceptibility in YNB buffered at pH 7.0, growth inhibition MIC
Experimental: as §1

C. tropicalis [5] = test system: C. tropicalis; parameters: species or system Candida strains; broth microdilution antifungal susceptibility in YNB buffered at pH 7.0, growth inhibition MIC; conditions: Candida tropicalis, YNB pH 7.0
Experimental: as §1

C. albicans [6] = test system: C. albicans; parameters: species or system Candida strains; broth microdilution antifungal susceptibility in YNB buffered at pH 7.0, growth inhibition MIC; conditions: Candida albicans, YNB pH 7.0
Experimental: as §1

MIC [1]: 32 µg/mL (≈ 104 µM)
MIC (C. tropicalis [2]; DSY381): 0.5 µg/mL (≈ 1.63 µM)
MIC (C. tropicalis [2]; DSY2274): 2 µg/mL (≈ 6.53 µM)
MIC (C. tropicalis [2]; DSY2336): 16 µg/mL (≈ 52.2 µM)
MIC (C. tropicalis [2]; DSY2374): 8 µg/mL (≈ 26.1 µM)
MIC (C. tropicalis [2]; DSY2825): 128 µg/mL (≈ 418 µM)
MIC (C. tropicalis [2]; DSY2897): 4 µg/mL (≈ 13.1 µM)
MIC (C. albicans [3]; DSY227): 0.5 µg/mL (≈ 1.63 µM)
MIC (C. albicans [3]; DSY288): 1 µg/mL (≈ 3.27 µM)
MIC (C. albicans [3]; DSY297): 2 µg/mL (≈ 6.53 µM)
MIC (C. albicans [3]; DSY299): 0.25 µg/mL (≈ 0.816 µM)
SMILES: OC(Cn1cncn1)(Cn1cncn1)c1ccc(F)cc1F [Fluconazole]

SMILES: C[C@H]1CC[C@]2(NC1)O[C@H]1C[C@H]3[C@@H]4CC[C@H]5C[C@@H](O)CC[C@]5(C)[C@H]4CC[C@]3(C)[C@H]1[C@@H]2C [compound 22, Tomatidine]
MIC ([4]; DSY2293, YNB pH 7.0): 0.625 µM (≈ 0.26 µg/mL)
MIC ([4]; DSY2294, YNB pH 7.0): > 40 µM
MIC ([4]; DSY2302, YNB pH 7.0): 1.25 µM (≈ 0.52 µg/mL)
MIC (C. tropicalis [5]; DSY381): 0.312 µM (≈ 0.13 µg/mL)
MIC (C. tropicalis [5]; DSY826): 0.15 µM (≈ 0.0623 µg/mL)
MIC (C. tropicalis [5]; DSY2274): 2.5 µM (≈ 1.04 µg/mL)
MIC (C. tropicalis [5]; DSY2310): 1.25 µM (≈ 0.52 µg/mL)
MIC (C. tropicalis [5]; DSY2825): 5 µM (≈ 2.08 µg/mL)
MIC (C. albicans [6]; DSY227): 0.625 µM (≈ 0.26 µg/mL)
MIC (C. albicans [6]; DSY281): 0.312 µM (≈ 0.13 µg/mL)
MIC (C. albicans [6]; DSY290): 2.5 µM (≈ 1.04 µg/mL)
